# Assay results taken from patent publication US10233156B2, “9-membered fused ring derivative” (Shionogi & Co., Ltd., priority 2015, dated 2019).
# Target: recombinant human ACC1 (Homo sapiens (Human), UniProt Q13085)
# Test: Measurement of inhibitory activity on human ACC1 (MALDI-TOF MS, conversion of acetyl CoA to malonyl CoA)
# Format: biochemical
# Settings: recombinant human ACC1, room temperature, 1 to 3 hours
# From the text: After a cDNA encoding human ACC1 (1 amino acid residue to 2346 amino acid residues from the N-terminus) was cloned from human liver cDNA library (BioChain), human ACC1 gene containing myc-tag and His-tag sequence at 3′ terminus was inserted into pIEXBAC3 (Novagen). Recombinant baculovirus was generated using FlashBACGOLD system (Oxford Expression Technologies) according to the manufacturer's protocol. To express human ACC1, Sf-9 cells were infected with recombinant baculovirus. After infected cells were disrupted, the filtrated lysate was subjected to Ni-affinity chromatography and anion-exchange chromatography. The fractions containing human ACC1 protein were pooled as recombinant human ACC1 solution.
# (§1) Recombinant human ACC1 and recombinant human ACC2, which were prepared by the method mentioned above, were preincubated with assay buffer solution (50 mM HEPES-KOH (pH 7.4), 10 mM magnesium chloride, 6-10 mM potassium citrate, 4 mM reduced form of glutathione, 1.5 mg/ml bovine serum albumin) for one hour. Then, 0.2 μL of each this invention compound solution (in DMSO) were dispensed to 384-well microplate, 5 μL of the preincubated enzyme solution and 5 μL of substrate solution (50 mM HEPES-KOH (pH 7.4), 1 mM ATP, 0.8 mM acetyl CoA and 25-50 mM potassium bicarbonate) were added to microplate. After centrifugation and shaking, the reaction mixtures were incubated in a humidified box at room temperature for 1 to 3 hours. After the incubation, the enzyme reactions were stopped by the addition of EDTA. Then, after the samples were cocrystallized with CHCA (α-cyano-4-hydroxy cinnamic acid) matrices on MALDI target plate, by using the matrix assist laser […] time-of-flight mass spectrometer (MALDI-TOF MS), samples were measured in reflector negative mode. Deprotonated ions of acetyl CoA (AcCoA) of substrate and malonyl CoA (MalCoA) of the reaction product were detected, then, the conversion rates of acetyl CoA to malonyl CoA was calculated by the intensity of [MalCoA-H]−/(Intensity of [MalCoA-H].+Intensity of [AcCoA-H]—) using each signal strength. […] In addition, potassium citrate concentrations in assay buffer solution, potassium hydrogen carbonate concentrations in substrate solution and incubation time were adjusted by each lot of enzyme.
row,SMILES,IC50
1,C[C@@H](CO[C@H]1CC[C@H](Oc2nc3ncc(OC4CC4)cc3n2C)CC1)NC(N)=O [Example I-204],> 100 µM
2,CC(=O)N[C@@H](C)CC(F)(F)[C@@H]1CC[C@@H](Oc2nc3c(F)cc(OCC(F)F)c(F)c3n2C)CO1 [Example I-230],> 100 µM
3,Cn1c(O[C@H]2CC[C@H](OC[C@H](CF)NC(=O)C3CC3)CC2)nc2c(F)cc(OCC(F)F)c(F)c21 [Example I-233],> 100 µM

# Next, values leading:
row,IC50,SMILES
1,> 100 µM,Cn1c(O[C@H]2CC[C@H](OC[C@H](CF)NC(=O)CO)CC2)nc2c(F)cc(OCC(F)F)c(F)c21 [Example I-245]
2,> 100 µM,C[C@@H](CO[C@H]1CC[C@H](Oc2nc3c(F)cc(OCC(F)F)c(F)c3n2C)CC1)NS(N)(=O)=O [Example I-242]
3,> 100 µM,C[C@@H](CO[C@H]1CC[C@H](Oc2nc3c(F)cc(OCC(F)F)c(Cl)c3n2C)CC1)NS(N)(=O)=O [Example I-248]
4,> 100 µM,CC(=O)N[C@@H](C)CO[C@H]1CC[C@H](Cc2nc3c(F)cc(OCC(F)F)c(F)c3n2C)CC1 [Example I-252]

# Target: recombinant human ACC2 (Homo sapiens (Human), UniProt O00763)
# Test: Measurement of inhibitory activity on human ACC2 (MALDI-TOF MS, conversion of acetyl CoA to malonyl CoA)
# Format: biochemical
# Settings: recombinant human ACC2, room temperature, 1 to 3 hours
# From the text: After a cDNA encoding human ACC2 (27 amino acid residue to 2458 amino acid residues from the N-terminus) was cloned from human kidney cDNA library (Clontech), human ACC2 gene containing His-tag sequence at 5′ terminus was inserted into pFastBac1 (Invitrogen). Recombinant baculovirus was generated using Bac-to-Bac baculovirus expression system (Invitrogen) according to the manufacturer's protocol. To express human ACC2, Sf-9 cells were infected with recombinant baculovirus. After infected cells were disrupted, the filtrated lysate was subjected to Ni-affinity chromatography and anion-exchange chromatography. The fractions containing human ACC2 protein were pooled as recombinant human ACC2 solution.
# as §1
# Chain of recombinant human ACC2 (O00763 27-2458): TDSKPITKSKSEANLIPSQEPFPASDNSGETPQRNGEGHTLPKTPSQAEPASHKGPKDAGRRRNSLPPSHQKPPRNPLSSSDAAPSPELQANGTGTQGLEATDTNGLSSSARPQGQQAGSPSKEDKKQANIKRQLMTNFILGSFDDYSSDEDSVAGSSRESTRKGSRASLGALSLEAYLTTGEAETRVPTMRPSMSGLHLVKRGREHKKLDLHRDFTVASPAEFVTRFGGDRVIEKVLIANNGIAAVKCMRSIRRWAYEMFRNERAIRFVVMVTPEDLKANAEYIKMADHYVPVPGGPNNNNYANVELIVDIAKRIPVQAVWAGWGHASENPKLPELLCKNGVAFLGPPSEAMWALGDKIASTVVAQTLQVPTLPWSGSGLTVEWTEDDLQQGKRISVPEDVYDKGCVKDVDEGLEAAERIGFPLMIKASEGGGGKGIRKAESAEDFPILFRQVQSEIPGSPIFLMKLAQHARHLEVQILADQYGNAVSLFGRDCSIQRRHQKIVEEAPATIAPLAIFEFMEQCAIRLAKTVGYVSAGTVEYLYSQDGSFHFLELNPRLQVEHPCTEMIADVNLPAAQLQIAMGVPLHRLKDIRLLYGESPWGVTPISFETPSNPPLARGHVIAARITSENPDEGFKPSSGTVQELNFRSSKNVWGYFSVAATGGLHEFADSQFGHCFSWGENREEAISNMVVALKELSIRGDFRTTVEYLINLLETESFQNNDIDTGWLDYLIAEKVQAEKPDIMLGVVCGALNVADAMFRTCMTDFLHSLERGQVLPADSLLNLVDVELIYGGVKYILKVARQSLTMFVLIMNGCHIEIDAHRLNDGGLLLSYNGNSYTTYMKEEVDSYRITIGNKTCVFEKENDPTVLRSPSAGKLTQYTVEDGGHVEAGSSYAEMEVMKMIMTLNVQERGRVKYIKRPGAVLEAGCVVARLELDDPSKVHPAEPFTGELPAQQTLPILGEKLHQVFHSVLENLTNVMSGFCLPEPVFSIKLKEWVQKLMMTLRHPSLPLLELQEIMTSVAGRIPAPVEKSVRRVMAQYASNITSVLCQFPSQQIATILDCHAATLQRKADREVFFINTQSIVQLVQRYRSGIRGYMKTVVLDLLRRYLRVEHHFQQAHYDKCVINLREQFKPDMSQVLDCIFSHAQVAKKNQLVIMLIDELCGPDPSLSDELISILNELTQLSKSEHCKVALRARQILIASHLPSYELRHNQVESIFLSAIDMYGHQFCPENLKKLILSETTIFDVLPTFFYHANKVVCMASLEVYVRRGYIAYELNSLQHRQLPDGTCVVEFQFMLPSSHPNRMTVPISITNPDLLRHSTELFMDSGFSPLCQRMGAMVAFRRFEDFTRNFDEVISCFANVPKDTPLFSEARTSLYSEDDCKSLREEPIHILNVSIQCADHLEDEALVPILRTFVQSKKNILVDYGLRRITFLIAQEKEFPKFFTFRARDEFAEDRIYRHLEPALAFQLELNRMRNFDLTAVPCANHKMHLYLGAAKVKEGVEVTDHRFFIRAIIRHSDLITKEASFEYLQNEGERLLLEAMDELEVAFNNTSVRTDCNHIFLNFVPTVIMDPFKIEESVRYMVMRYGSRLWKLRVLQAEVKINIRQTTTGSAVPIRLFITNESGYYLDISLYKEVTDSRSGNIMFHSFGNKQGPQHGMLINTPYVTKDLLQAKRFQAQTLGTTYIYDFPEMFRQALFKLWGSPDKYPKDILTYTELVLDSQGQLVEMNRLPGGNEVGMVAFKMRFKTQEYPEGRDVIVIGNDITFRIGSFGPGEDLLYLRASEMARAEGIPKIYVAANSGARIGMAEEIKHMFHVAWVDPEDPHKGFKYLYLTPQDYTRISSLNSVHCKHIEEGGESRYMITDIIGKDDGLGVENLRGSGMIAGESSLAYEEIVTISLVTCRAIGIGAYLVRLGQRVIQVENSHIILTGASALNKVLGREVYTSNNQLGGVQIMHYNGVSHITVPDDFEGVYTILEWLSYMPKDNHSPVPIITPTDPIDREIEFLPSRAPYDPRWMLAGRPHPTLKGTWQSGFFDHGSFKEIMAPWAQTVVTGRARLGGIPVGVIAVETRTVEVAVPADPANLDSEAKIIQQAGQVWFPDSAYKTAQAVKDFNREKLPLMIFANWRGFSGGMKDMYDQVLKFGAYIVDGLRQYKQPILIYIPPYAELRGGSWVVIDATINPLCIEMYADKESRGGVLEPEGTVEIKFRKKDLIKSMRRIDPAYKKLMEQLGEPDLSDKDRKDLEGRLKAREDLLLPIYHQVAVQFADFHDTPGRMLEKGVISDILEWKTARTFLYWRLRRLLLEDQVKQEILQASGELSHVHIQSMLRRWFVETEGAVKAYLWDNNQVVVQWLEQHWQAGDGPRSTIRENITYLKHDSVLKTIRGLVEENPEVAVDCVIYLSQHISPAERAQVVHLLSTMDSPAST
row,SMILES,IC50
1,C[C@@H](CO[C@H]1CC[C@H](Oc2nc3ccc(OC4CC4)c(F)c3n2C)CC1)NC(N)=O [Example I-198],5.3 nM
2,CC(=O)N[C@@H](C)CO[C@H]1CC[C@H](Oc2nc3ccc(OC4CC4)cc3n2C)CC1 [Example I-221],9.1 nM
3,CC(=O)N[C@@H](C)CO[C@H]1CC[C@H](Oc2nc3c(F)cc(OC4COC4)c(Cl)c3n2C)CC1 [Example I-219],12 nM
4,CC(=O)N[C@@H](C)CO[C@H]1CC[C@H](Oc2nc3ccc(OC4(C)CC4)cc3n2C)CC1 [Example I-202],17 nM
5,CC(=O)N[C@@H](C)CO[C@H]1CC[C@H](Oc2nc3ccc(OC4CC4)nc3n2C)CC1 [Example I-234],13 nM
6,CC(=O)N[C@@H](C)CO[C@H]1CC[C@H](Oc2nc3cc(F)c(Cl)cc3n2C)CC1 [Example I-217],64 nM
7,CC(=O)N[C@@H](C)CO[C@H]1CC[C@H](Oc2nc3c(F)c(F)c(OCC(F)F)c(F)c3n2C)CC1 [Example I-209],5.3 nM
8,CC(=O)N[C@@H](CF)CO[C@H]1CC[C@H](Oc2nc3c(C#N)cc(OC4CC4)c(F)c3n2C)CC1 [Example I-206],12 nM
9,CC(=O)N[C@@H](C)CO[C@H]1CC[C@H](Oc2nc3c(C#N)cc(OC4CC4)cc3n2C)CC1 [Example I-225],33 nM
10,CC(=O)N[C@@H](C)CC[C@H]1OC[C@H](Oc2nc3c(F)cc(OCC(F)F)c(F)c3n2C)C[C@@H]1F [Example I-196],10 nM
11,CC(=O)N[C@@H](C)CO[C@H]1CC[C@H](Oc2nc3cnc(OC4CC4)cc3n2C)CC1 [Example I-224],150 nM
12,CC(=O)N[C@@H](C)CO[C@H]1CC[C@H](Oc2nc3c(F)cc(OCC(F)F)c(F)c3n2C)CC1 [Example I-208],8.7 nM
13,Cn1c(O[C@H]2CC[C@H](OC[C@H](CF)NC(=O)CC#N)CC2)nc2c(F)cc(OCC(F)F)c(F)c21 [Example I-227],44 nM
14,Cn1c(O[C@H]2CC[C@H](OC[C@H](CF)NC(N)=O)CC2)nc2c(F)cc(OCC(F)F)c(F)c21 [Example I-232],11 nM
15,CC(=O)N[C@@H](C)CO[C@H]1CC[C@H](Oc2nc3c(C#N)cc(OC4CCC4)c(F)c3n2C)CC1 [Example I-226],6.1 nM
16,CC(=O)N[C@@H](C)CC[C@H]1OC[C@H](Oc2nc3c(F)cc(OCC(F)F)c(F)c3n2C)CC1(F)F [Example I-228],13 nM
17,Cn1c(O[C@H]2CC[C@H](OC[C@H](CF)NC(N)=O)CC2)nc2c(F)cc(OC3CC3)cc21 [Example I-213],8.9 nM
18,CC(=O)N[C@@H](C)CO[C@H]1CC[C@H](Oc2nc3c(F)cc(OC(F)F)c(F)c3n2C)CC1 [Example I-231],10 nM
19,CC(=O)N[C@@H](C)CO[C@H]1CC[C@H](Oc2nc3cc(F)c(F)c(F)c3n2C)CC1 [Example I-215],17 nM

row,SMILES,IC50
1,CC(=O)N[C@@H](C)CC(F)(F)[C@@H]1CC[C@@H](Oc2nc3c(F)cc(OCC(F)F)c(F)c3n2C)CO1 [Example I-230],89 nM
2,Cn1c(O[C@H]2CC[C@H](OC[C@H](CF)NC(=O)C3CC3)CC2)nc2c(F)cc(OCC(F)F)c(F)c21 [Example I-233],31 nM
3,CC(=O)N[C@@H](C)C(F)(F)C[C@H]1CC[C@H](Oc2nc3c(F)cc(OCC(F)F)c(F)c3n2C)CO1 [Example I-214],12 nM
4,CC(=O)N[C@H](C)C(F)(F)C[C@H]1CC[C@H](Oc2nc3c(F)cc(OCC(F)F)c(F)c3n2C)CO1 [Example I-220],180 nM
5,CC(=O)N[C@@H](C)CO[C@H]1CC[C@H](Oc2nc3cc(F)c(OC4CC4)c(F)c3n2C)CC1 [Example I-207],5.4 nM
6,CC(=O)N[C@@H](CF)CO[C@H]1CC[C@H](Oc2nc3cnc(OC4CC4)c(F)c3n2C)CC1 [Example I-210],7.2 nM
7,CC(=O)N[C@@H](C)CO[C@H]1CC[C@H](Oc2nc3cc(F)c(OC4CC4)cc3n2C)CC1 [Example I-212],55 nM
8,C[C@@H](CO[C@H]1CC[C@H](Oc2nc3cnc(OC4CC4)cc3n2C)CC1)NC(N)=O [Example I-229],600 nM
9,CC(=O)N[C@@H](C)CO[C@H]1CC[C@H](Oc2nc3c(F)cc(O[C@H]4C[C@H](O)C4)c(F)c3n2C)CC1 [Example I-223],87 nM
10,C[C@@H](CO[C@H]1CC[C@H](Oc2nc3cc(F)c(OC4CC4)cc3n2C)CC1)NC(N)=O [Example I-218],120 nM
11,CC(=O)N[C@@H](CF)CO[C@H]1CC[C@H](Oc2nc3c(F)cc(OCC(F)F)c(Cl)c3n2C)CC1 [Example I-205],4.6 nM
12,CC(=O)N[C@@H](CF)CO[C@H]1CC[C@H](Oc2nc3c(F)cc(OC4CC4)cc3n2C)CC1 [Example I-201],4.7 nM
13,CC(=O)N[C@@H](C)CO[C@H]1CC[C@H](Oc2nc3c(F)cc(OCC4(F)COC4)c(F)c3n2C)CC1 [Example I-195],35 nM
14,C[C@@H](CO[C@H]1CC[C@H](Oc2nc3c(Cl)cc(OC4CC4)cc3n2C)CC1)NC(N)=O [Example I-222],17 nM
15,CC(=O)N[C@@H](C)CO[C@H]1CC[C@H](Oc2nc3c(F)cc(OC4CC5(COC5)C4)c(F)c3n2C)CC1 [Example I-216],57 nM
16,CC(=O)N[C@@H](C)CO[C@H]1CC[C@H](Oc2nc3c(F)cc(OC4(C)COC4)c(F)c3n2C)CC1 [Example I-203],110 nM
17,CC(=O)N[C@@H](C)CO[C@H]1CC[C@H](Oc2nc3cc(Cl)c(F)cc3n2C)CC1 [Example I-211],120 nM
18,C[C@@H](CO[C@H]1CC[C@H](Oc2nc3ccc(OC4CC4)cc3n2C)CC1)NC(N)=O [Example I-197],13 nM

# Continued, values first:
row,IC50,SMILES
1,43 nM,C[C@@H](CO[C@H]1CC[C@H](Oc2nc3c(F)c(F)c(F)c(F)c3n2C)CC1)NC(N)=O [Example I-235]
2,53 nM,Cn1c(O[C@H]2CC[C@H](OC[C@H](CF)NC(=O)CO)CC2)nc2c(F)cc(OCC(F)F)c(F)c21 [Example I-245]
3,120 nM,C[C@@H](CO[C@H]1CC[C@H](Oc2nc3c(F)cc(OCC(F)F)c(F)c3n2C)CC1)NS(N)(=O)=O [Example I-242]
4,160 nM,C[C@@H](CO[C@H]1CC[C@H](Oc2nc3c(F)cc(OCC(F)F)c(Cl)c3n2C)CC1)NS(N)(=O)=O [Example I-248]
5,78 nM,CC(=O)N[C@@H](C)CO[C@H]1CC[C@H](Oc2nc3c(F)cc(O[C@H]4C[C@@H](O)C4)c(F)c3n2C)CC1 [Example I-246]
6,3.9 nM,CC(=O)N[C@@H](C)CO[C@H]1CC[C@H](Oc2nc3ccc(OC4CC4)c(F)c3n2C)CC1 [Example I-247]
7,30 nM,COC(=O)N[C@@H](CF)CO[C@H]1CC[C@H](Oc2nc3c(F)cc(OCC(F)F)c(F)c3n2C)CC1 [Example I-239]
8,6.6 nM,CC(=O)N[C@@H](C)CC[C@H]1OC[C@H](Oc2nc3c(F)cc(OC4CC4)cc3n2C)CO1 [Example I-249]
9,12 nM,C[C@@H](CO[C@H]1CC[C@H](Oc2nc3cnc(OC4CC4)c(F)c3n2C)CC1)NC(N)=O [Example I-237]
10,21 nM,CC(=O)N[C@@H](C)/C=C(\F)[C@@H]1CC[C@@H](Oc2nc3c(F)cc(OCC(F)F)c(F)c3n2C)CO1 [Example I-250]
11,5.6 nM,C[C@@H](CO[C@H]1CC[C@H](Oc2nc3c(F)cc(OC4CC4)cc3n2C)CC1)NC(N)=O [Example I-243]
12,26 nM,CC(=O)N[C@@H](C)CO[C@H]1CC[C@H](Oc2nc3c(F)cc(OCC(C)(C)C#N)c(F)c3n2C)CC1 [Example I-244]
13,44 nM,C[C@@H](CO[C@H]1CC[C@H](Oc2nc3ccc(OC4CC4)nc3n2C)CC1)NC(N)=O [Example I-240]
14,83 nM,CC(=O)N[C@@H](C)CO[C@H]1CC[C@H](Oc2nc3cc(F)c(F)cc3n2C)CC1 [Example I-238]
15,9.5 nM,C[C@@H](CO[C@H]1CC[C@H](Oc2nc3cc(F)c(OC4CC4)c(F)c3n2C)CC1)NC(N)=O [Example I-241]
16,100 nM,CC(=O)N[C@@H](C)CO[C@H]1CC[C@@H](Cc2nc3c(F)cc(OCC(F)F)c(F)c3n2C)CC1 [Example I-251]
